This passage reports TGI and GI50 results from PubChem BioAssay (NCI).

Among the test systems are UO-31 renal; KM12 colon; U251 CNS; HOP-62 NSCLC; TK-10 renal; SN12C renal; NCI-H522 lung; SNB-19 CNS; NCI-H23 lung; CCRF-CEM leukemia.
Common to all, as to test: growth of human tumour cells (NCI), 48 h

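All cell lines were grown in 96-well plates and treated with compound for 48 hours. The concentration for 50% growth inhibition is given as GI50. TGI: total growth inhibition.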

Turning to `COc1ccc2c(c1)CCc1c(-c3noc4c3CCc3cc(OC)ccc3-4)noc1-2`, the TGI with UO-31 renal, with KM12 colon, in the experiment on U251 CNS, in the experiment with HOP-62 NSCLC, in the experiment with TK-10 renal and with SN12C renal was over 100 µM in each case. The TGI with NCI-H522 lung, in the experiment on SNB-19 CNS and in the experiment with NCI-H23 lung was over 100 µM each time.

On to `COc1ccc(C(c2ccc(C(C)C)cc(=O)c2O)c2ccc3cccnc3c2O)cc1` (centres undefined), for which the TGI was 1.78 µM in the experiment on UO-31 renal; 18.7 µM in the experiment with KM12 colon; 3.5 µM in the experiment with U251 CNS; 2.29 µM in the experiment on HOP-62 NSCLC; over 100 µM in the experiment with CCRF-CEM leukemia; 9.48 µM in the experiment on SN12C renal. Moreover, the values for the TGI in the experiment on NCI-H522 lung and in the experiment on NCI-H23 lung were 10.9 µM and 1.58 µM, respectively.

Take `CC(=O)NC(CCCCNC(=O)N(CCCl)N=O)C(=O)NCc1ccccc1` (centres undefined): the TGI with UO-31 renal, in the experiment with KM12 colon, in the experiment on U251 CNS, with HOP-62 NSCLC, in the experiment on CCRF-CEM leukemia and in the experiment with SN12C renal was over 100 µM each time. The TGI in the experiment on NCI-H522 lung, in the experiment on SNB-19 CNS and in the experiment on NCI-H23 lung was over 100 µM in each case.

Take `O=C(O)C(Cc1c[nH]c2ccccc12)N=Cc1nc(-c2ccccc2)oc1O` (centres undefined): the TGI in the experiment with UO-31 renal, in the experiment on U251 CNS, with HOP-62 NSCLC, in the experiment with CCRF-CEM leukemia, in the experiment with TK-10 renal and with SN12C renal was over 100 µM each time. The TGI in the experiment with NCI-H522 lung, in the experiment on SNB-19 CNS and with NCI-H23 lung was over 100 µM each time.

`COc1ccc(C(=O)N2CCc3c([nH]c4ccccc34)C2C(=O)O)o1` (centres undefined): the TGI in the experiment on KM12 colon, in the experiment with U251 CNS, in the experiment on HOP-62 NSCLC, in the experiment on CCRF-CEM leukemia, in the experiment on TK-10 renal and with SN12C renal was over 10 µM each time. Besides, the TGI in the experiment with SNB-19 CNS is over 10 µM.

Turning to `CCCCCCCC/C=C/CCCCCCCC1=NC(C)(C)CN1C(C)C`, the GI50 was 1.43 µM with UO-31 renal; 1.62 µM with KM12 colon; 1.62 µM in the experiment with U251 CNS; 1.58 µM with HOP-62 NSCLC; 1.45 µM in the experiment with TK-10 renal; 1.46 µM with SN12C renal. The GI50 with SNB-19 CNS is 2.17 µM; with NCI-H23 lung, 1.51 µM. For the same molecule, the TGI in the experiment with UO-31 renal is 2.81 µM; in the experiment on KM12 colon, 2.97 µM; in the experiment on U251 CNS, 3 µM; in the experiment with HOP-62 NSCLC it was 2.92 µM; with TK-10 renal it was 2.79 µM; in the experiment with SN12C renal it was 2.78 µM. Moreover, the figures for the TGI in the experiment with SNB-19 CNS and in the experiment with NCI-H23 lung were 7.49 µM and 2.83 µM, respectively.

For the molecule `NC(CNO)C(=O)O` (centres undefined), the TGI in the experiment with UO-31 renal, with KM12 colon, in the experiment with U251 CNS, in the experiment with HOP-62 NSCLC, in the experiment with TK-10 renal and with SN12C renal was over 100 µM each time. Moreover, the TGI in the experiment with NCI-H522 lung, in the experiment with SNB-19 CNS and in the experiment on NCI-H23 lung was over 100 µM in each case.

With `O=C(O)c1ccc2c(c1Nc1ccccc1)C(=O)c1ccccc1C2=O`, the GI50 in the experiment on UO-31 renal was 11.8 µM; in the experiment with KM12 colon, 61.1 µM; in the experiment with U251 CNS, 47 µM; with HOP-62 NSCLC, 35.6 µM; in the experiment with CCRF-CEM leukemia, 40.5 µM; in the experiment on TK-10 renal, 98.5 µM. The GI50 was 50.3 µM in the experiment with SN12C renal, 49.3 µM in the experiment on SNB-19 CNS and 19 µM with NCI-H23 lung. The TGI with UO-31 renal, with KM12 colon, with U251 CNS, in the experiment with HOP-62 NSCLC, with CCRF-CEM leukemia and in the experiment on TK-10 renal was over 100 µM each time. The TGI with SN12C renal, in the experiment with SNB-19 CNS and in the experiment on NCI-H23 lung was over 100 µM in each case.

In the case of `COC(=O)CCC(NC(=O)C(C)NC(=O)COC1C(O)C(OC(=O)CCNc2c3ccccc3nc3cccc([N+](=O)[O-])c23)OC(OCc2ccccc2)C1NC(C)=O)C(N)=O` (centres undefined), the TGI in the experiment on UO-31 renal, in the experiment with KM12 colon, in the experiment on U251 CNS, in the experiment on HOP-62 NSCLC, with CCRF-CEM leukemia and in the experiment with TK-10 renal was over 10 µM each time. The TGI in the experiment with SN12C renal, in the experiment on SNB-19 CNS and in the experiment with NCI-H23 lung was over 10 µM each time.

As for `Nc1ncnc(NC2C=C(CO)C(O)C2O)c1[N+](=O)[O-]` (centres undefined), the TGI with UO-31 renal, with KM12 colon, in the experiment on U251 CNS, with HOP-62 NSCLC, in the experiment on CCRF-CEM leukemia and in the experiment with TK-10 renal was over 100 µM in each case. Further, the TGI in the experiment with SN12C renal, in the experiment with SNB-19 CNS and in the experiment with NCI-H23 lung was over 100 µM in each case.

For `N=C1N(c2ccccc2)C(=O)C23CCCC2C13N1CCOCC1` (centres undefined), the TGI with UO-31 renal, in the experiment on KM12 colon, in the experiment on U251 CNS, in the experiment with HOP-62 NSCLC, in the experiment on CCRF-CEM leukemia and in the experiment with SN12C renal was over 100 µM each time. For the same molecule, the TGI in the experiment with NCI-H522 lung, in the experiment with SNB-19 CNS and in the experiment on NCI-H23 lung was over 100 µM throughout.

As to `COC(=O)C(C(=O)C(=O)Nc1ccccc1C(C)=O)c1nc2ccc(Cl)cc2[nH]c1=O` (centres undefined), the TGI with UO-31 renal, with KM12 colon, with U251 CNS, in the experiment on HOP-62 NSCLC, in the experiment with CCRF-CEM leukemia and with TK-10 renal was over 100 µM each time. The TGI with SN12C renal, with SNB-19 CNS and in the experiment on NCI-H23 lung was over 100 µM in each case.

Consider `O=C(O)c1ccc(O)c(N=Nc2cc(S(=O)(=O)O)c3ccccc3c2O)c1`, for which the TGI is over 100 µM with UO-31 renal; over 100 µM in the experiment on KM12 colon; over 100 µM in the experiment on U251 CNS; 35.6 µM in the experiment on HOP-62 NSCLC; over 100 µM in the experiment with TK-10 renal; over 100 µM with SN12C renal. Besides, the TGI in the experiment on SNB-19 CNS and in the experiment with NCI-H23 lung was over 100 µM throughout.
